From patent US8404738B2 (Hoffmann-La Roche Inc., priority 2011, dated 2013) come the findings set out here.

The structures appear in SMILES notation.

One test deals with T1, recombinant human HDAC8 (Homo sapiens, UniProt Q9BY41).
T1 construct: made in house; host or cells: insect cells
T1 sequence (Q9BY41 1-377): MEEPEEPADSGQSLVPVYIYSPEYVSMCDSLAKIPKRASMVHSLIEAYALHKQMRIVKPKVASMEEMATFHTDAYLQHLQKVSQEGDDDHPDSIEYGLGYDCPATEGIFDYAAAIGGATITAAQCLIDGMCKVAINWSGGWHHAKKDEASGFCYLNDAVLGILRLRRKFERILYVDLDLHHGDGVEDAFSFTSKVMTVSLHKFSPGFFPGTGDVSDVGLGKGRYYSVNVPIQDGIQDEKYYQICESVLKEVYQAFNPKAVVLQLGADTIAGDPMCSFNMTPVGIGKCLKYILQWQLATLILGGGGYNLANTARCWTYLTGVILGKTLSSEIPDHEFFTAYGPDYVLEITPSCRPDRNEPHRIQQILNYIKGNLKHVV
The experiment in a line: HDAC8 inhibition: recombinant HDAC8 fluorometric assay. Conditions: recombinant human HDAC8, substrate Ac-Arg-His-Lys-Lys(ε-acetyl)-AMC; read-out: HDAC8 IC50. The test is classed as biochemical. The method, boiled down: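 Recombinant human HDAC8 from insect cells was preincubated with compound for 15 min at rt, then given Ac-Arg-His-Lys-Lys(ε-acetyl)-AMC substrate for 30 min at rt. IC50 came from normalized percent inhibition with curve fitting.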

A further test concerns the target T2, HDAC6 (Homo sapiens, UniProt Q9UBN7).
T2 construct: endogenous in cells; host or cells: A549 cells
T2 sequence (Q9UBN7 1-1215): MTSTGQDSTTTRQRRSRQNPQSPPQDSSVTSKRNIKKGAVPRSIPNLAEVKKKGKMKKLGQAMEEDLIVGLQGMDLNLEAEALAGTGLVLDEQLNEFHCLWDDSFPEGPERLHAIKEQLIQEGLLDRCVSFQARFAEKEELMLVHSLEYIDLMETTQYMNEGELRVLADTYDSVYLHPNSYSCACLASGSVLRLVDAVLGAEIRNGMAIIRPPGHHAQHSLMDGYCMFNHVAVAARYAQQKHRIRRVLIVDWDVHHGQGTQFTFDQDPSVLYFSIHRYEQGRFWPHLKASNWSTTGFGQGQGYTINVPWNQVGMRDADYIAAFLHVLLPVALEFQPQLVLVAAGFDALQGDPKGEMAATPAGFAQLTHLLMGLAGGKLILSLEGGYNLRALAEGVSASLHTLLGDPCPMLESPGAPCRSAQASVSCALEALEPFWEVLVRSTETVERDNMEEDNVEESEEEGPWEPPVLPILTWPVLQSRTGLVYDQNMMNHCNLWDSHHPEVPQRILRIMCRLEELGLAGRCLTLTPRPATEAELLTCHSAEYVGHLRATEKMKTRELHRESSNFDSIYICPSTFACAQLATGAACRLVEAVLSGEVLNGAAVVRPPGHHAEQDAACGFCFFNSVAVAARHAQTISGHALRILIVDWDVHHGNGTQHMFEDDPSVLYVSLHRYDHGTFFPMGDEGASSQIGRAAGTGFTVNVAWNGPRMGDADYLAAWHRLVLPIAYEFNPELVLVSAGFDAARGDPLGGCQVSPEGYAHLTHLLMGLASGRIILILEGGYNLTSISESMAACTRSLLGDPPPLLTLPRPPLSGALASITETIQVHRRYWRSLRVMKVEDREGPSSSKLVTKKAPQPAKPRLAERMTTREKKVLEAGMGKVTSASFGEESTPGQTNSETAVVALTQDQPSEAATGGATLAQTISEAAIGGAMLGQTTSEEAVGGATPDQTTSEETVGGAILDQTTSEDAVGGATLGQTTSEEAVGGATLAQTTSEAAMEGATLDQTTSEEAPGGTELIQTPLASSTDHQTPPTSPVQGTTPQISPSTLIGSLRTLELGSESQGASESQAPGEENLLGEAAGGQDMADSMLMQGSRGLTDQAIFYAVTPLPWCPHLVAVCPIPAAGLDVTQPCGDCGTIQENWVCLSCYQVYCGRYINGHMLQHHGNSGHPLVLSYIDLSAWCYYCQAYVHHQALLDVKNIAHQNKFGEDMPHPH
The experiment in a line: Tubulin acetylation cytoblot assay (A549 cells). It is filed as cell-based. Conditions: 17-18 h incubation, tubulin acetylation as marker of HDAC6 inhibition, read-out: Tub-Ac EC50. The method, boiled down:
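Cells were exposed to compound for 17-18 h, then fixed with formaldehyde and permeabilized with cold MeOH. They were probed for 4 h at 4° C with anti-acetylated tubulin plus HRP anti-mouse IgG (each 1:750), and read by ECL luminescence. EC50 values came from curves normalized to top and bottom controls.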

In test [1] the test system is p21 promoter-luciferase construct. Put plainly: p21 reporter gene induction (HeLa cells, p21 promoter-luciferase construct).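 As to all read-outs here: transfected HeLa cells exposed to compound for 15 h, luciferase luminescence read from lysates, p21 promoter lacks p53 site, proxy for cellular HDAC1/2/3 inhibition.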 Conditions: for p21 RP3: relative gene level of p21 compared to MS275 at 3 μM; for p21 RP10: relative level of p21 compared to MS275 at 10 μM; for p21 RP30: relative level of p21 compared to MS275 at 30 μM.
Description: As a surrogate for in-cell HDAC1/2/3 inhibition, p21 induction was used as a counterscreen to evaluate the selectivity of the compounds in the present invention toward HDAC6 or HDAC8.
The novel compounds of the present invention were tested for their ability to induce p21 gene expression using a reporter gene assay involving HeLa cells transfected with a p21 promoter-luciferase construct. The p21 promoter contained the Sp1/Sp3 binding site for HDAC but not the upstream p53 binding site. Briefly, the day before transfection, HeLa cells were seeded at 11,000 cells/well in a 96-well culture plate and incubated at 37° C. in 5% CO2 overnight. A transfection media was prepared prior to transfection according to the following procedure: (1) 5 μl serum-free DMEM, 0.15 μl Fugene 6 reagent, 40 ng p21-luc, 10 ng GFP were mixed gently and incubated at rt for 30 minutes; (2), then 98 μl DMEM (with 10% FBS, 1% penicillin and streptomycin) was added to the DNA: Fugene 6 reagent complex and mixed gently. For transfection, the medium was removed and replaced with 100 μl/well transfection media which was prepared according to the procedure above. After incubating the cells for 24 hours at 37° C. in 5% CO2, fresh media and test compounds were added to the wells and the cells further incubated for 15 hours at 37° C. in 5% CO2. Cells were lysed by adding 80 μl/well of a cell culture lysis reagent (Promega). 50 μl of each lysate was taken for GFP detection using an excitation wavelength of 486 nm and detection at 527 nm. 100 μl luciferase assay reagent (Promega) was then added to every 20 μl cell lysate for luminometer detection.

As for `O=C(NO)c1ccc(NC2CCN(c3cccc(Oc4ccccc4)c3)C2=O)cc1` (stereo not drawn) [Example 30, N-Hydroxy-4-[2-oxo-1-(3-phenoxy-phenyl)-pyrrolidin-3-ylamino]-benzamide], the IC50 at recombinant human HDAC8 came out at 3210 nM. Besides, at HDAC6, the concentration for a half-maximal effect (EC50) came out at 2.28 µM. In test [1], the “p21 RP3” value turned out to be 0.13, the “p21 RP10” value turned out to be 0.09 and the “p21 RP30” value is given as 0.05.
`O=C(NO)c1ccc(NC2CCN(c3ccc(Oc4ccccc4)cc3)C2=O)cc1` (stereo not drawn) [Example 31, N-Hydroxy-4-[2-oxo-1-(4-phenoxy-phenyl)-pyrrolidin-3-ylamino]-benzamide]: the IC50 at recombinant human HDAC8 came to 4140 nM. Further, the EC50 on HDAC6 was found to be 9.78 µM. Also, in test [1], the “p21 RP3” value was 0.09, the “p21 RP10” value stood at 0.07 and the “p21 RP30” value turned out to be 0.05.
Consider `O=C(NO)c1ccc(NC2CCN(c3cccc(-c4ccccc4)c3)C2=O)cc1` (stereo not drawn) [Example 32, 4-(1-Biphenyl-3-yl-2-oxo-pyrrolidin-3-ylamino)-N-hydroxy-benzamide], for which the half-inhibitory concentration (IC50) on recombinant human HDAC8 was 710 nM. In addition, on HDAC6, the EC50 was determined as 0.7 µM. Also, in test [1], the “p21 RP3” value was 0.38, the “p21 RP10” value is 0.08 and the “p21 RP30” value was 0.15.
The like results for `O=C(NO)c1ccc(NC2CCN(c3cccc(-n4cccc4)c3)C2=O)cc1` (stereo not drawn) [Example 33, N-Hydroxy-4-[2-oxo-1-(3-pyrrol-1-yl-phenyl)-pyrrolidin-3-ylamino]-benzamide] were, in that order, 970 nM, 0.68 µM, 0.45, 0.41 and 0.18.
The like results for `O=C(NO)c1ccc(NC2CCN(c3ccc(-n4ccnc4)cc3)C2=O)cc1` (stereo not drawn) [Example 34, N-Hydroxy-4-[1-(4-imidazol-1-yl-phenyl)-2-oxo-pyrrolidin-3-ylamino]-benzamide] were, in that order, 2890 nM, 10.6 µM, 0.36, 0.12 and 0.06.
As for `O=C(NO)c1ccc(NC2CCN(c3cccc(-c4cnco4)c3)C2=O)cc1` (stereo not drawn) [Example 35, N-Hydroxy-4-[1-(3-oxazol-5-yl-phenyl)-2-oxo-pyrrolidin-3-ylamino]-benzamide], the IC50 on recombinant human HDAC8 was determined as 610 nM. The concentration for a half-maximal effect (EC50) on HDAC6 stood at 2.04 µM. Moreover, in test [1], the “p21 RP3” value came out at 0.44, the “p21 RP10” value is given as 0.25 and the “p21 RP30” value amounted to 0.20.
Take `CN(C)CCOc1cccc(N2CCC(Nc3ccc(C(=O)NO)cc3)C2=O)c1` (stereo not drawn) [Example 36, 4-{1-[3-(2-Dimethylamino-ethoxy)-phenyl]-2-oxo-pyrrolidin-3-ylamino}-N-hydroxy-benzamide]: the IC50 at recombinant human HDAC8 is 490 nM. In addition, the concentration giving a half-maximal response (EC50) on HDAC6 was found to be 2.05 µM. In test [1], the “p21 RP3” value is 0.55, the “p21 RP10” value worked out at 0.18 and the “p21 RP30” value was determined as 0.45.
On the same counts, the results for `O=C(NO)c1ccc(NC2CCN(c3cccc4ccccc34)C2=O)cc1` (stereo not drawn) [Example 37, N-Hydroxy-4-(1-naphthalen-1-yl-2-oxo-pyrrolidin-3-ylamino)-benzamide] are 930 nM, 2.16 µM, 0.04, 0.04 and 0.06.
Regarding `O=C(NO)c1ccc(NC2CCN(c3ccc4ccccc4c3)C2=O)cc1` (stereo not drawn) [Example 38, N-Hydroxy-4-(1-naphthalen-2-yl-2-oxo-pyrrolidin-3-ylamino)-benzamide], the half-inhibitory concentration (IC50) on recombinant human HDAC8 came to 1500 nM. Also, at HDAC6, the EC50 came to 1.06 µM. Further, in test [1], the “p21 RP3” value is on record as 0.50, the “p21 RP10” value is recorded as 0.02 and the “p21 RP30” value is recorded as −0.02.
For `O=C(NO)c1ccc(NC2CCN(c3cccc4cccnc34)C2=O)cc1` (stereo not drawn) [Example 39, N-Hydroxy-4-(2-oxo-1-quinolin-8-yl-pyrrolidin-3-ylamino)-benzamide], the IC50 on recombinant human HDAC8 worked out at 570 nM. Besides, the 50% effective concentration (EC50) on HDAC6 came to 13.1 µM. In test [1], the “p21 RP3” value is listed as 0.29, the “p21 RP10” value amounted to 0.09 and the “p21 RP30” value is 0.20.
Take `O=C(NO)c1ccc(NC2CCN(c3cccc4ncccc34)C2=O)cc1` (stereo not drawn) [Example 40, N-Hydroxy-4-(2-oxo-1-quinolin-5-yl-pyrrolidin-3-ylamino)-benzamide]: the half-maximal inhibitory concentration (IC50) on recombinant human HDAC8 worked out at 510 nM. The 50% effective concentration (EC50) on HDAC6 was determined as 1.31 µM. Besides, in test [1], the “p21 RP3” value was found to be 0.25, the “p21 RP10” value is 0.26 and the “p21 RP30” value is 0.21.
Take `O=C(NO)c1ccc(NC2CCN(C3CCCCC3)C2=O)cc1` (stereo not drawn) [Example 41, 4-(1-Cyclohexyl-2-oxo-pyrrolidin-3-ylamino)-N-hydroxy-benzamide]: the IC50 at recombinant human HDAC8 came to 840 nM. For the same compound, the EC50 on HDAC6 was determined as 5.15 µM. Further, in test [1], the “p21 RP3” value was 0.05, the “p21 RP10” value was found to be 0.02 and the “p21 RP30” value was 0.02.
As for `O=C(NO)c1ccc(NC2CCN(Cc3ccccc3)C2=O)cc1` (stereo not drawn) [Example 42], the IC50 at recombinant human HDAC8 stood at 650 nM. Also, on HDAC6, the concentration giving a half-maximal response (EC50) stood at 11.4 µM. For the same compound, in test [1], the “p21 RP3” value stood at 0.02, the “p21 RP10” value is given as 0.09 and the “p21 RP30” value is 0.34.
As to `C[C@H](c1ccccc1)N1CCC(Nc2ccc(C(=O)NO)cc2)C1=O` (stereo partly drawn) [Example 44], the IC50 on recombinant human HDAC8 is 700 nM. Also, at HDAC6, the half-maximal effective concentration (EC50) worked out at 6.31 µM. In test [1], the “p21 RP3” value is recorded as −0.10, the “p21 RP10” value amounted to 0.03 and the “p21 RP30” value is 0.10.
As to `C[C@H](c1ccccc1)N1CCC(Nc2ccc(C(=O)NO)cc2)C1=O` (stereo partly drawn) [Example 45], at recombinant human HDAC8, the IC50 was determined as 650 nM. The EC50 on HDAC6 is 8.3 µM. For the same compound, in test [1], the “p21 RP3” value is −0.19, the “p21 RP10” value was determined as 0.02 and the “p21 RP30” value stood at 0.13.
For `CC(C)(c1ccccc1Cl)N1CCC(Nc2ccc(C(=O)NO)cc2)C1=O` (stereo not drawn) [Example 48, 4-{1-[1-(2-Chloro-phenyl)-1-methyl-ethyl]-2-oxo-pyrrolidin-3-ylamino}-N-hydroxy-benzamide], on recombinant human HDAC8, the half-inhibitory concentration (IC50) was 680 nM. Further, the EC50 on HDAC6 is 4.6 µM. Also, in test [1], the “p21 RP3” value is on record as 0.24, the “p21 RP10” value is recorded as 0.08 and the “p21 RP30” value was 0.23.
For `CC(C)(c1cccc(Cl)c1)N1CCC(Nc2ccc(C(=O)NO)cc2)C1=O` (stereo not drawn) [Example 49, 4-{1-[1-(3-Chloro-phenyl)-1-methyl-ethyl]-2-oxo-pyrrolidin-3-ylamino}-N-hydroxy-benzamide], the half-inhibitory concentration (IC50) at recombinant human HDAC8 amounted to 490 nM. In addition, the EC50 on HDAC6 turned out to be 9.86 µM. In test [1], the “p21 RP3” value is 0.41, the “p21 RP10” value is recorded as 0.50 and the “p21 RP30” value was 0.85.
On to `CC(C)(c1ccc(Cl)cc1)N1CCC(Nc2ccc(C(=O)NO)cc2)C1=O` (stereo not drawn) [Example 50, 4-{1-[1-(4-Chloro-phenyl)-1-methyl-ethyl]-2-oxo-pyrrolidin-3-ylamino}-N-hydroxy-benzamide], for which, at recombinant human HDAC8, the IC50 was found to be 670 nM. The EC50 at HDAC6 worked out at 8.62 µM. In test [1], the “p21 RP3” value is 0.17, the “p21 RP10” value amounted to 0.17 and the “p21 RP30” value is 0.53.

What is called IC50 is the midpoint of a concentration-inhibition curve. By EC50 is commonly meant the concentration that produces a half-maximal response.
